From US10500166B2, “Methods for the treatment of erectile dysfunction using fispemifene” (QUATRX PHARMACEUTICALS, priority 2007, dated 2019)

Experiments:
[1] = system: DHT (dihydrotestosterone); assay: Example 3 study in hypogonadal men: serum dihydrotestosterone (ITT); type: in vivo, human; details: 300 mg/day
Procedure: (§1) A randomized, double-blind, placebo controlled, parallel-group study of once-daily doses of fispemifene (100, 200, and 300 mg/day) given for 4 weeks was conducted in a population of hypogonadal men. Subjects were required to meet all of the following inclusion criteria at screening and prior to randomization to be eligible for the study:
(§2) There were 77 subjects total. The number of subjects randomized to the 100 mg fispemifene, 200 mg fispemifene, 300 mg fispemifene, and placebo arms were 21, 21, 19, and 16, respectively.
(§3) Subjects were randomly assigned to one of four treatment groups in a 1:1:1:1 ratio: • Treatment A (100 mg): fispemifene 100 mg+placebo+placebo; • Treatment B (200 mg): fispemifene 100 mg+fispemifene 100 mg+placebo; • Treatment C (300 mg): fispemifene 100 mg+fispemifene 100 mg+fispemifene 100 mg; and • Treatment D (Placebo): placebo+placebo+placebo.
(§4) Subjects took one dose (three capsules) of study medication once a day at home for 4 weeks. Capsules were to be taken in the morning immediately after breakfast, with the exception of the morning of the Week 4 visit. Capsules were not to be taken on the morning of the Week 4 visit because trough plasma levels of fispemifene were determined by a blood sample taken at this visit. Each subject was randomly assigned to treatment with one of the 3 different dose regimens of fispemifene or placebo vehicle. Each subject received a 4 week supply of study drug.
(§5) Blood samples were taken from the subjects within 1 week prior to dosing with study drug to establish baseline values; after 2 and 4 weeks of randomization; and 2 weeks after the last dose of study drug. Serum was prepared from those samples and used to determine the mean % change from baseline in total testosterone, free testosterone, SHBG (sex hormone-binding globulin), DHT (dihydrotestosterone), E2 (estradiol), LH (luteinizing hormone), FSH (follicle stimulating hormone), and inhibin B.
(§6) 3. Percent change from baseline in SHBG, DHT, E2, LH, FSH, inhibin B, and testosterone/E2 ratio at Weeks 2, 4, and 6.

[2] = system: inhibin B; assay: Example 3 study in hypogonadal men: serum inhibin B (ITT); type: in vivo, human; details: for Inhibin B % Change from Baseline to Week 2, Max / Inhibin B % Change from Baseline to Week 2, Mean ± SD / Inhibin B % Change from Baseline to Week 2, Median / Inhibin B % Change from Baseline to Week 2, Min: Week 2, (Week minus Baseline) divided by Baseline; for Inhibin B % Change from Baseline to Week 2, Max / Inhibin B % Change from Baseline to Week 2, Mean ± SD / Inhibin B % Change from Baseline to Week 2, Median / Inhibin B % Change from Baseline to Week 2, Min / Inhibin B % Change from Baseline to Week 4, Max / Inhibin B % Change from Baseline to Week 4, Mean ± SD / Inhibin B % Change from Baseline to Week 4, Median / Inhibin B % Change from Baseline to Week 4, Min / Inhibin B % Change from Baseline to Week 6, Max / Inhibin B % Change from Baseline to Week 6, Mean ± SD / Inhibin B % Change from Baseline to Week 6, Median / Inhibin B % Change from Baseline to Week 6, Min: LOCF; for Inhibin B % Change from Baseline to Week 4, Max / Inhibin B % Change from Baseline to Week 4, Mean ± SD / Inhibin B % Change from Baseline to Week 4, Median / Inhibin B % Change from Baseline to Week 4, Min: Week 4, (Week minus Baseline) divided by Baseline; for Inhibin B % Change from Baseline to Week 6, Max / Inhibin B % Change from Baseline to Week 6, Mean ± SD / Inhibin B % Change from Baseline to Week 6, Median / Inhibin B % Change from Baseline to Week 6, Min: Week 6, (Week minus Baseline) divided by Baseline
Procedure: as §1, §2, §3, §4, §5, §6

[3] = to Week 6 (2 weeks after discontinuation)

OCCOCCOc1ccc(/C(=C(/CCCl)c2ccccc2)c2ccccc2)cc1 [Fispemifene, (Z)-2-{2-[4-(4-Chloro-1,2-diphenylbut-1-enyl)phenoxy]ethoxy}ethanol]
Dihydrotestosterone, % Change from Baseline, Min ([1]; to Week 4): 0% | Dihydrotestosterone, % Change from Baseline, Max [1, 3]: 98% | Dihydrotestosterone, % Change from Baseline, Median [1, 3]: 19% | Inhibin B % Change from Baseline to Week 2, Max ([2]; 100 mg): 1.64 | Inhibin B % Change from Baseline to Week 2, Mean ± SD ([2]; 100 mg): 0.24 ± 0.493 | Inhibin B % Change from Baseline to Week 2, Median ([2]; 100 mg): 0.17 | Inhibin B % Change from Baseline to Week 2, Min ([2]; 100 mg): −0.44 | Inhibin B % Change from Baseline to Week 4, Max ([2]; 100 mg): 1.86 | Inhibin B % Change from Baseline to Week 4, Mean ± SD ([2]; 100 mg): 0.30 ± 0.631 | Inhibin B % Change from Baseline to Week 4, Median ([2]; 100 mg): 0.09 | Inhibin B % Change from Baseline to Week 4, Min ([2]; 100 mg): −0.61 | Inhibin B % Change from Baseline to Week 6, Max ([2]; 100 mg): 1.40 | Inhibin B % Change from Baseline to Week 6, Mean ± SD ([2]; 100 mg): 0.41 ± 0.572 | Inhibin B % Change from Baseline to Week 6, Median ([2]; 100 mg): 0.29 | Inhibin B % Change from Baseline to Week 6, Min ([2]; 100 mg): −0.41 | Inhibin B Actual Value at Baseline (Visit 2), Max ([2]; 100 mg): 191.0 pg/mL | Inhibin B Actual Value at Baseline (Visit 2), Mean ± SD ([2]; 100 mg): 95.1 ± 46.32 pg/mL | Inhibin B Actual Value at Baseline (Visit 2), Median ([2]; 100 mg): 89.0 pg/mL | Inhibin B Actual Value at Baseline (Visit 2), Min ([2]; 100 mg): 22.0 pg/mL | Inhibin B % Change from Baseline to Week 2, Max ([2]; 200 mg): 1.48 | Inhibin B % Change from Baseline to Week 2, Mean ± SD ([2]; 200 mg): 039 ± 0.534 | Inhibin B % Change from Baseline to Week 2, Median ([2]; 200 mg): 0.21 | Inhibin B % Change from Baseline to Week 2, Min ([2]; 200 mg): −0.22 | Inhibin B % Change from Baseline to Week 4, Max ([2]; 200 mg): 3.40 | Inhibin B % Change from Baseline to Week 4, Mean ± SD ([2]; 200 mg): 0.42 ± 0.862 | Inhibin B % Change from Baseline to Week 4, Median ([2]; 200 mg): 0.12 | Inhibin B % Change from Baseline to Week 4, Min ([2]; 200 mg): −0.44 | Inhibin B % Change from Baseline to Week 6, Max ([2]; 200 mg): 2.00 | Inhibin B % Change from Baseline to Week 6, Mean ± SD ([2]; 200 mg): 0.40 ± 0.628 | Inhibin B % Change from Baseline to Week 6, Median ([2]; 200 mg): 0.22 | Inhibin B % Change from Baseline to Week 6, Min ([2]; 200 mg): −0.34 | Inhibin B Actual Value at Baseline (Visit 2), Max ([2]; 200 mg): 220.0 pg/mL | Inhibin B Actual Value at Baseline (Visit 2), Mean ± SD ([2]; 200 mg): 105.6 ± 59.43 pg/mL | Inhibin B Actual Value at Baseline (Visit 2), Median ([2]; 200 mg): 95.0 pg/mL | Inhibin B Actual Value at Baseline (Visit 2), Min ([2]; 200 mg): 16.0 pg/mL | Inhibin B % Change from Baseline to Week 2, Max ([2]; 300 mg): 0.97 | Inhibin B % Change from Baseline to Week 2, Mean ± SD ([2]; 300 mg): 0.12 ± 0.400 | Inhibin B % Change from Baseline to Week 2, Median ([2]; 300 mg): 0.05 | Inhibin B % Change from Baseline to Week 2, Min ([2]; 300 mg): −0.42 | Inhibin B % Change from Baseline to Week 4, Max ([2]; 300 mg): 0.878 | Inhibin B % Change from Baseline to Week 4, Mean ± SD ([2]; 300 mg): 0.016 ± 0.2904 | Inhibin B % Change from Baseline to Week 4, Median ([2]; 300 mg): −0.012 | Inhibin B % Change from Baseline to Week 4, Min ([2]; 300 mg): −0.459 | Inhibin B % Change from Baseline to Week 6, Max ([2]; 300 mg): 0.645 | Inhibin B % Change from Baseline to Week 6, Mean ± SD ([2]; 300 mg): 0.004 ± 0.3349 | Inhibin B % Change from Baseline to Week 6, Median ([2]; 300 mg): −0.057 | Inhibin B % Change from Baseline to Week 6, Min ([2]; 300 mg): −0.493 | Inhibin B Actual Value at Baseline (Visit 2), Max ([2]; 300 mg): 334.0 pg/mL | Inhibin B Actual Value at Baseline (Visit 2), Mean ± SD ([2]; 300 mg): 127.3 ± 75.76 pg/mL | Inhibin B Actual Value at Baseline (Visit 2), Median ([2]; 300 mg): 128.0 pg/mL | Inhibin B Actual Value at Baseline (Visit 2), Min ([2]; 300 mg): 16.0 pg/mL
